Data taken from patent US12064420B2, “Tie-2 activators targeting the Schlemm's canal” (EyePoint Pharmaceuticals, Inc., priority 2019, dated 2024).

Tested on: ocular normotensive human patients with diabetic eye disease
Experiment: Phase 2 trial: IOP after subcutaneous Compound 1 alone or with intravitreal ranibizumab, diabetic macular edema
Assay type: in vivo
Procedure: IOP in patients were measured using a double-masked, parallel-group designed to assess the effects of subcutaneous (SC) Compound 1 (sodium salt) alone, or as an adjunct to intravitreal ranibizumab trial. 144 human subjects with diabetic retinopathy complicated by center-involved diabetic macular edema (DME) were randomized to 3 months of one of 3 treatments: 1) Compound 1 (15 mg) SC twice daily (BID) plus sham monthly intravitreal injection (IVT); 2) Compound 1 SC BID plus ranibizumab (0.3 mg) monthly IVT; and 3) Placebo SC BID+ranibizumab IVT. At baseline, mean age was 61.3±1.3 years; 59% of subjects were male; 82.6% had Type 2 diabetes; mean HBA1c was 7.5%±1.3%; mean best corrected visual acuity was 60.2 ETDRS letters (Snellen 20/63); and mean IOP was 15.7 mmHg±3.4. Ophthalmic safety assessments were performed at baseline and monthly during the 3-month treatment period including a single IOP measurement by applanation tonometry in both the study eye and the fellow eye at each time point. By protocol, all patients had baseline IOP<24 mmHg (ocular normotensive).
In the pre-specified safety analysis, change from baseline IOP was analyzed using a t-test (null hypothesis 0 change from baseline). The level of significance was set at 0.05. A post hoc analysis of the subject level IOP measure was the change from baseline in the average over both eyes within a subject for each timepoint. Statistical testing of each timepoint was completed using ANCOVA with baseline IOP (averaged over both eyes within a subject) as covariate. Additionally, statistical testing averaging across all timepoints was completed using a mixed-model repeated measures ANCOVA. The level of significance was set at 0.05.

[1] = average of study eye and fellow eye, week 4
[2] = average of study eye and fellow eye, week 8
[3] = average of study eye and fellow eye, week 12

With “ranibizumab [Placebo + ranibizumab, reference compound]” the “Week 4 subject-level IOP change from BL, mean (SD)” value [1] was −0.2 (2.61) mmHg, the “Week 4 subject-level IOP, mean (SD)” value [1] was 15.2 (3.50) mmHg and the “Week 8 subject-level IOP change from BL, mean (SD)” value [2] was 0.2 (2.86) mmHg. For the same substance, the “Week 8 subject-level IOP, mean (SD)” value [2] was 15.3 (3.31) mmHg, the “Week 12 subject-level IOP change from BL, mean (SD)” value [3] was 0.0 (3.32) mmHg and the “Week 12 subject-level IOP, mean (SD)” value [3] was 15.5 (3.85) mmHg. The “Week 4 IOP change from BL, mean (SD)” value (fellow eye (FE), week 4) was −0.3 (3.49) mmHg, the “Week 4 IOP, mean (SD)” value (fellow eye (FE), week 4) was 15.5 (4.85) mmHg and the “Week 8 IOP change from BL, mean (SD)” value (fellow eye (FE), week 8) was −0.3 (3.44) mmHg. For the same substance, the “Week 8 IOP, mean (SD)” value (fellow eye (FE), week 8) was 15.5 (4.52) mmHg, the “Week 12 IOP change from BL, mean (SD)” value (fellow eye (FE), week 12) was −0.1 (3.62) mmHg and the “Week 12 IOP, mean (SD)” value (fellow eye (FE), week 12) was 15.7 (5.19) mmHg. For the same substance, the “Week 4 IOP change from BL, mean (SD)” value (study eye (SE), week 4) was −0.1 (2.74) mmHg, the “Week 4 IOP, mean (SD)” value (study eye (SE), week 4) was 15.0 (3.50) mmHg and the “Week 8 IOP change from BL, mean (SD)” value (study eye (SE), week 8) was 0.0 (3.25) mmHg. The “Week 8 IOP, mean (SD)” value (study eye (SE), week 8) was 15.0 (3.61) mmHg, the “Week 12 IOP change from BL, mean (SD)” value (study eye (SE), week 12) was 0.1 (3.83) mmHg and the “Week 12 IOP, mean (SD)” value (study eye (SE), week 12) was 15.3 (4.09) mmHg. The “mean change in IOP from baseline” value (study or fellow eye, all time points) was −0.3 to +0.1 mmHg.
